We go through 8 compounds from patent publication US20140024030A1, “PRESELECTION OF SUBJECTS FOR THERAPEUTIC TREATMENT WITH OXYGEN SENSITIVE AGENTS BASED IN HYPOXIC STATUS” (priority 2010, published 2014).

Experiment [1] deals with advanced pancreatic cancer. As to conditions: Phase II, combination chemotherapy with Gemcitabine; cited from earlier work.
In experiment [2] the test system is advanced pancreatic cancer. As to conditions: Phase III, combination with Gemcitabine; cited from earlier work.
For experiment [3], the system named is HCT116 human colon carcinoma xenograft. The experiment in a line: HCT116 xenograft model in nude mice (hypoxic tumor). The format is in vivo. To be noted: for efficacy at slowing tumor growth in HCT116 (high hypoxia) versus 786O (low hypoxia) tumors: comparison of HCT116 and 786O xenografts in nude mice.
Experimental: Human tumor cell lines HCT116 (ATCC #CRL-247; Schroy P C, et al. Cancer 76: 201-209, 1995) and 786-O (ATCC #CRL-1932; Williams R D, et al. In Vitro 12: 623-627, 1976), were obtained from the American Type Culture Collection (Manassus, Va., USA) were cultured using routine methods until a sufficient number of cells were obtained for implantation. Studies were conducted on animals between 7 and 12 weeks of age at implantation. To implant HCT116 tumor cells into nude mice, the cells were trypsinized, washed in PBS and resuspended at a concentration of 75×10^6 cells/ml in McCoy's modified medium with 50% of BD Matrigel® Basement Membrane Matrix (BD Biosciences®, Bedford, Mass., USA). To implant 786-O tumor cells into nude mice, the cells were trypsinized as above, washed in PBS and resuspended at a concentration of 75×10^6 cells/ml in RPMI 1640 medium with 50% of BD Matrigel® Basement Membrane Matrix. Using a 27 gauge needle and 1 cc syringe, 0.1 ml of the cell suspension was injected into the corpus adiposum of nude mice. […] The location permits palpation and measurement of the tumors using external calipers. Tumor volumes (V) were calculated by caliper measurement of the width (W), length (L) and thickness (T) of tumors using the following formula: V=0.5236×(L×W×T).
For experiment [4], the system named is phosphorylated RPS6 (ribosomal protein S6). As to conditions: TSC1-deficient cells; cited from earlier work.
In the next experiment the test system is pancreatic cancer. As to conditions: PTK787 orally daily with gemcitabine, cited from earlier work.
Experiment [5] deals with metastatic colorectal cancer (mCRC). As to conditions: cited from earlier work.
For experiment [6] the test system is unchanged. As to conditions: cited from earlier work. The source holds these as a separate data set.
Experiment [7] relates to 786-O human renal carcinoma xenograft. In words: 786-O xenograft model in nude mice (low hypoxia tumor). It is filed as in vivo. How it is done:
Human tumor cell lines HCT116 (ATCC #CRL-247; Schroy P C, et al. Cancer 76: 201-209, 1995) and 786-O (ATCC #CRL-1932; Williams R D, et al. In Vitro 12: 623-627, 1976), were obtained from the American Type Culture Collection (Manassus, Va., USA) were cultured using routine methods until a sufficient number of cells were obtained for implantation. Studies were conducted on animals between 7 and 12 weeks of age at implantation. To implant HCT116 tumor cells into nude mice, the cells were trypsinized, washed in PBS and resuspended at a concentration of 75×10^6 cells/ml in McCoy's modified medium with 50% of BD Matrigel® Basement Membrane Matrix (BD Biosciences®, Bedford, Mass., USA). To implant 786-O tumor cells into nude mice, the cells were trypsinized as above, washed in PBS and resuspended at a concentration of 75×10^6 cells/ml in RPMI 1640 medium with 50% of BD Matrigel® Basement Membrane Matrix. Using a 27 gauge needle and 1 cc syringe, 0.1 ml of the cell suspension was injected into the corpus adiposum of nude mice. The corpus adiposum is a fat body located in the ventral abdominal vicera in the right quadrant of the abdomen at the juncture of the os coxae (pelvic bone) and the os femoris (femur). The location permits palpation and measurement of the tumors using external calipers. Tumor volumes (V) were calculated by caliper measurement of the width (W), length (L) and thickness (T) of tumors using the following formula: V=0.5236×(L×W×T). Animals were randomized into treatment groups so that the average tumor volumes of each group were similar at the start of dosing.
A tumor model in which the tumors have relatively high and low levels of LDH5, indicating high and low levels of hypoxia, using human tumor cell lines HCT116 and 786-O was established as set forth in the previous example.
As above, HCT116 and 786-O cells were cultured and implanted into nude mice using the methods in the previous example. Tumor growth was measured using calipers. Prior to treatment with the various agents, tumors were permitted to develop in vivo until they reached approximately 150 mm^3 in volume, which typically required 2-3 weeks following implantation. Animals were randomized into treatment groups so that the average tumor volumes of each group were similar at the start of dosing.
Tumor volume was monitored throughout the course of the study, until up to about 40 days from the date of tumor implantation. The exact number of days of the study depended on a number of factors including, for example, the number of days from implantation for the tumors to reach the desired volume.

The subject of experiment [8] is mCRC pretreated with 5-FU/irinotecan. As to conditions: cited from earlier work.
The subject of experiment [9] is locally advanced, unresectable or metastatic pancreatic cancer. As to conditions: 100 mg cohort, arms: gemcitabine plus erlotinib vs gemcitabine alone, cited from earlier work.
Experiment [10] has as its system metastatic malignancies including renal cell carcinoma. To be noted: cited from earlier work.
The next experiment concerns hepatocellular carcinoma. As to conditions: cited from earlier work.
In experiment [11] the test system is advanced renal cell carcinoma. As to conditions: cited from earlier work.
The subject of experiment [12] is renal cell carcinoma (RCC). As to conditions: 140 subjects with elevated LDH; temsirolimus vs interferon; log-rank p<0.005; cited from earlier work.
In experiment [13] the test system is advanced renal cell carcinoma (RCC). To be noted: cited from earlier work; for progression-free survival: P=0.0001.
The subject of experiment [14] is renal cell carcinoma cell lines. As to conditions: in vitro; cited from earlier work.
The next experiment has as its system renal cancer. To be noted: arms: bevacizumab and interferon-alpha vs interferon-alpha alone; cited from earlier work.
For another experiment, the system named is treatment-naïve RCC. To be noted: final analysis; arms: sunitinib vs IFN-α; cited from earlier work.
Where [15] appears, read: arms: temsirolimus alone vs interferon-alpha.

Where two headings read alike, the source gives them in different places.

As to `CNC(=O)c1ccccc1Sc1ccc2c(/C=C/c3ccccn3)n[nH]c2c1` [Axitinib, N-Methyl-2-[[3-[(E)-2-pyridin-2-ylethenyl]-1H-indazol-6-yl]sulfanyl]benzamide], the response result in experiment [1] is listed as “good response”. Also, the “survival rates versus Gemcitabine alone” value in experiment [2] is reported as “no evidence of improved survival rates”.

On to `Cn1c(=O)n(-c2ccc(C(C)(C)C#N)cc2)c2c3cc(-c4cnc5ccccc5c4)ccc3ncc21` [BEZ235], for which, in [3], the “efficacy at slowing tumor growth in HCT116 (high hypoxia) versus 786O (low hypoxia) tumors” value is recorded as “not found to work better in the tumors with a higher level of hypoxia”. Moreover, in experiment [4], the “levels of phosphorylated RPS6” value is reported as “significantly reduce the levels of phosphorylated RPS6”.

`Clc1ccc(Nc2nnc(Cc3ccncc3)c3ccccc23)cc1` [PTK787, N-(4-chlorophenyl)-4-(pyridin-4-ylmethyl)phthalazin-1-amine]: the “duration of stable disease” value in the experiment with pancreatic cancer is recorded as 2-6 months. Further, in the experiment on pancreatic cancer (six of eleven patients), the “patients with stable disease as the best response” value was 55%. Also, the “PFS HR” value in experiment [5] (CONFIRM 1 - High LDH, N 316, PTK787 1250 mg/day vs placebo) was 0.61; in experiment [5] (CONFIRM 1 - Low LDH, N 852) it was 0.93; in [6] (All CONFIRM 1 & 2 High LDH Patients, N 566), 0.62; in [6] (All CONFIRM 1 & 2 Patients, N 2023), 0.82; in [8] (CONFIRM 2 - High LDH, N 250, PTK787 1250 mg/day vs placebo), 0.63; in [8] (CONFIRM 2 - Low LDH, N 605), 0.95. In [3] (50 mg/kg 5x/week P.O., p=0.1209), the “tumor growth versus control” value was “reduced the growth of the tumor as compared to control”. For the same compound, the “efficacy at slowing tumor growth in HCT116 (high hypoxia) versus 786O (low hypoxia) tumors” value in experiment [3] is on record as “more effective at slowing tumor growth in tumors with high levels of hypoxia”. Moreover, the “tumor burden versus control” value is given as “no difference in tumor burden” in experiment [7] (50 mg/kg 5x/week P.O., p=0.7805); “no difference in tumor burden” in experiment [7] (XL765 study (FIG. 4B), 30 mg/kg 5x/week P.O., p=0.7682); “no difference in tumor burden” in experiment [7] (erlotinib study (FIG. 5B), 1x/week P.O., p=0.8548).

On to `COc1cc(Nc2nc3ccccc3nc2NS(=O)(=O)c2ccc(NC(=O)c3ccc(C)c(OC)c3)cc2)cc(OC)c1` [XL765], for which the “tumor growth rate versus control” value in [3] (XL765 30 mg/kg 5x/week P.O., p=0.009) is reported as “reduced the growth rate of the tumor as compared to control”. Besides, the “efficacy at slowing tumor growth in HCT116 (high hypoxia) versus 786O (low hypoxia) tumors” value in [3] is on record as “more effective at slowing tumor growth in tumors with high levels of hypoxia”.

Turning to `Nc1ccn([C@@H]2O[C@H](CO)[C@@H](O)C2(F)F)c(=O)n1` [gemcitabine], the progression free survival in [9] (p=0.006) is 3.5 months. In addition, the survival in [9] (p=0.028) is recorded as 6.0 months.

As to `CNC(=O)c1cc(Oc2ccc(NC(=O)Nc3ccc(Cl)c(C(F)(F)F)c3)cc2)ccn1` [sorafenib], in [10] (at 24 weeks, p=0.0077), the progression free rate is recorded as 50%. Besides, the “progression free survival HR” value in experiment [10] (sorafenib vs placebo) is listed as 0.29; in experiment [11] (sorafenib vs placebo, p<0.000001), 0.44. Besides, the “disease control rate (DCR)” value in the experiment on hepatocellular carcinoma (disease stabilization for at least 28 days) is 43.48%. Besides, the “time to progression HR” value in the experiment on hepatocellular carcinoma (independent radiological review, sorafenib vs placebo, p=0.000007) is recorded as 0.58. In addition, in the experiment with hepatocellular carcinoma (sorafenib 400 mg twice daily vs placebo, p=0.00058), the “overall survival HR” value is reported as 0.69. Besides, in experiment [11] (769 patients, sorafenib 400 mg twice daily (N=384)), the “median progression free survival” value is 167 days. The “estimated improvement in overall survival vs placebo” value in experiment [11] (as of 30 Nov. 2005, 367 deaths) was 30%. In addition, the “median PFS” value in experiment [11] (patients with no prior IL-2 or interferon therapy (N=137)) is 172 days. The median overall survival in experiment [11] (sorafenib 400 mg twice daily, 367 deaths) is 19.3 months. In [3], the “efficacy at slowing tumor growth in HCT116 (high hypoxia) versus 786O (low hypoxia) tumors” value is on record as “not found to work better in the tumors with a higher level of hypoxia”.

In the case of `CO[C@H]1C[C@@H]2CC[C@@H](C)[C@@](O)(O2)C(=O)C(=O)N2CCCC[C@H]2C(=O)O[C@H]([C@H](C)C[C@@H]2CC[C@@H](OC(=O)C(C)(CO)CO)[C@H](OC)C2)CC(=O)[C@H](C)/C=C(\C)[C@@H](O)[C@@H](OC)C(=O)[C@H](C)C[C@H](C)/C=C/C=C/C=C/1C` [temsirolimus], the survival in [12] was 6.9 months. In addition, the progression-free survival in experiment [13] (setting [15]) was 5.5 months. Also, the “overall survival versus interferon-alpha alone” value in [13] (combination of temsirolimus and interferon-alpha) is listed as “did not result in a significant increase in overall survival”. Also, the “increase in median overall survival” value in [13] (temsirolimus compared to interferon-alpha) was 49%. Further, in [3], the “efficacy at slowing tumor growth in HCT116 (high hypoxia) versus 786O (low hypoxia) tumors” value is on record as “not found to work better in the tumors with a higher level of hypoxia”. In experiment [14], the “activity of mTOR” value is “inhibited the activity of mTOR”; the “levels of HIF-1, HIF-2 alpha and VEGF” value was “reduced levels of the hypoxia-inducible factors HIF-1 and HIF-2 alpha, and the vascular endothelial growth factor”.

In the case of interferon-alpha, the survival in [12] is listed as 4.2 months. Also, the “patients with decreased tumor size” value in the experiment on renal cancer is 12%. The “median OS” value in the experiment on treatment-naïve RCC is 94.9 weeks. Also, the progression-free survival in experiment [13] (setting [15]) is listed as 3.1 months. Besides, the median overall survival in [13] (arms: temsirolimus alone vs interferon-alpha, P=0.0078) is reported as 7.3 months.
